9 compounds from patent US9796741B2 (Achillion Pharmaceuticals, Inc., priority 2014, dated 2017) can be followed below.

For orientation: IC50 means the concentration that gives 50% inhibition. Low values mean greater potency, high ones weaker potency.

Human factor D, sequence (P00746 26-253): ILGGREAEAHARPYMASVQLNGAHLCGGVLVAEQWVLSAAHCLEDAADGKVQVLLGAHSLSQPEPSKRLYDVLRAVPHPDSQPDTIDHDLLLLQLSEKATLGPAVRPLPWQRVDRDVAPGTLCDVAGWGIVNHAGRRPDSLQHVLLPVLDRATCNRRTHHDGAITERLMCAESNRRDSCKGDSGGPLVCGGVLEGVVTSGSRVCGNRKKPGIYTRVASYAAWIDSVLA

The target in the assay is Human factor D (Homo sapiens (Human), UniProt P00746). In words: Human Factor D Assay. The assay is classed as biochemical. Conditions: human factor D 80 nM, substrate Z-L-Lys-SBzl, DTNB. An outline of the steps:
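Serum-purified factor D (80 nM final) preincubated 5 min at room temperature with compound in 50 mM Tris, 1M NaCl, pH 7.5. Z-L-Lys-SBzl and DTNB added at 100 μM each; OD405 followed kinetically over 30 min. IC50 by non-linear regression of % inhibition.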
In turn, `CC(=O)c1cn(CC(=O)N2C[C@H](F)C[C@H]2C(=O)Nc2cccc(-c3ccccc3Cl)c2F)c2ccc(-c3cnc(C)nc3)cc12` [Compound 102, (2S,4R)-1-(2-(3-acetyl-5-(2-methylpyrimidin-5-yl)-1H-indol-1-yl)acetyl)-N-(2′-chloro-2-fluorobiphenyl-3-yl)-4-fluoropyrrolidine-2-carboxamide] displayed an IC50 below 1000 nM.

`CC(=O)c1cn(CC(=O)N2C[C@H](F)C[C@H]2C(=O)Nc2cccc(-c3ncccc3Cl)c2F)c2ccc(-c3cnc(C)nc3)cc12` [Compound 164, (2S,4R)-1-(2-(3-acetyl-5-(2-methylpyrimidin-5-yl)-1H-indol-1-yl)acetyl)-N-(3-(3-chloropyridin-2-yl)-2-fluorophenyl)-4-fluoropyrrolidine-2-carboxamide] gave an IC50 below 1000 nM. As to `CC(=O)c1cn(CC(=O)N2C[C@H](F)C[C@H]2C(=O)NCc2cc(F)cc(Cl)c2)c2ccc(-c3ccnnc3)cc12` [Compound 46, (2S,4R)-1-(2-(3-acetyl-5-(pyridazin-4-yl)-1H-indol-1-yl)acetyl)-N-(3-chloro-5-fluorobenzyl)-4-fluoropyrrolidine-2-carboxamide], the half-inhibitory concentration (IC50) was below 1000 nM. With `NC(=O)c1nn(CC(=O)N2C[C@H](F)C[C@H]2C(=O)Nc2cncc(Cl)n2)c2ccc(-c3ccnnc3)cc12` [Compound 89, 1-(2-((2S,4R)-2-(6-chloropyrazin-2-ylcarbamoyl)-4-fluoropyrrolidin-1-yl)-2-oxoethyl)-5-(pyridazin-4-yl)-1H-indazole-3-carboxamide] the figure was below 1000 nM; with `NC(=O)c1nn(CC(=O)N2[C@@H]3C[C@@H]3C[C@H]2C(=O)Nc2cccc(-c3ccccc3Cl)c2F)c2ccc(-c3ncccn3)cc12` [Compound 7, 1-(2-((1R,3S,5R)-3-(2′-chloro-2-fluorobiphenyl-3-ylcarbamoyl)-2-azabicyclo[3.1.0]hexan-2-yl)-2-oxoethyl)-5-(pyrimidin-2-yl)-1H-indazole-3-carboxamide], below 1000 nM.

`CC(=O)c1cn(CC(=O)N2C[C@H](F)C[C@H]2C(=O)Nc2cccc(Br)n2)c2ccc(-c3ccccc3Cl)cc12` [Compound 100, (2S,4R)-1-(2-(3-acetyl-5-(2-chlorophenyl)-1H-indol-1-yl)acetyl)-N-(6-bromopyridin-2-yl)-4-fluoropyrrolidine-2-carboxamide]: the half-inhibitory concentration (IC50) was below 1000 nM.

`Cc1ccnn1-c1ccccc1NC(=O)[C@@H]1C[C@@H](F)CN1C(=O)Cn1nc(C(N)=O)c2cc(-c3ccnnc3)ccc21` [Compound 71, 1-(2-((2S,4R)-4-fluoro-2-(2-(5-methyl-1H-pyrazol-1-yl)phenylcarbamoyl)pyrrolidin-1-yl)-2-oxoethyl)-5-(pyridazin-4-yl)-1H-indazole-3-carboxamide] gave an IC50 above 10000 nM.

In turn, `CC(=O)c1cn(CC(=O)N2C[C@H](F)C[C@H]2C(=O)NCc2cccc(Cl)c2)c2ccc(-c3ccnnc3)cc12` [Compound 44, (2S,4R)-1-(2-(3-acetyl-5-(pyridazin-4-yl)-1H-indol-1-yl)acetyl)-N-(3-chlorobenzyl)-4-fluoropyrrolidine-2-carboxamide] displayed an IC50 below 1000 nM. With `NC(=O)c1nn(CC(=O)N2C[C@H](F)C[C@H]2C(=O)Nc2nnc(-c3ccc(Cl)c(Cl)c3)s2)c2ccc(-c3ccnnc3)cc12` [Compound 69, 1-(2-((2S,4R)-2-(5-(3,4-dichlorophenyl)-1,3,4-thiadiazol-2-ylcarbamoyl)-4-fluoropyrrolidin-1-yl)-2-oxoethyl)-5-(pyridazin-4-yl)-1H-indazole-3-carboxamide], the IC50 is above 10000 nM.
